Measured values reported in US20220324880A1, “SMARCA INHIBITORS AND USES THEREOF” (Kymara Therapeutics, Inc., priority 2019, published 2022).

What follows are compounds tested against T1, SMARCA2 (Homo sapiens, UniProt P51531) (assay: SMARCA2 BromoScan bromodomain binding assay (phage-displayed bromodomain, qPCR readout)). Details: read-out: BromoScan Panel - SMARCA2: External Kd.
Set-up: made in house; host or cells: E. coli host derived from the BL21 strain (T7 phage lysate)
Method: Bromodomain assays. T7 phage strains displaying bromodomains were grown in parallel in 24-well blocks in an E. coli host derived from the BL21 strain. E. coli were grown to log-phase and infected with T7 phage from a frozen stock (multiplicity of infection=0.4) and incubated with shaking at 32° C. until lysis (90-150 minutes). The lysates were centrifuged (5,000×g) and filtered (0.2 μm) to remove cell debris. Streptavidin-coated magnetic beads were treated with biotinylated small molecule or acetylated peptide ligands for 30 minutes at room temperature to generate affinity resins for bromodomain assays. […] Test compounds were prepared as 1000λ stocks in 100% DMSO. Kds were determined using an 11-point 3-fold compound dilution series with one DMSO control point. […] The compounds were then diluted directly into the assays such that the final concentration of DMSO was 0.09%. All reactions performed in polypropylene 384-well plates. Each was a final volume of 0.02 ml. […] The bromodomain concentration in the eluates was measured by qPCR. Compound Handling: An 11-point 3-fold serial dilution of each test compound was prepared in 100% DMSO at 1000× final test concentration. […] The compounds were then diluted directly into the assays such that the final concentration of DMSO was 0.09%. […] Binding constants (Kds) were calculated with a standard dose-response curve using the Hill equation. Curves were fitted using a non-linear least square fit with the Levenberg-Marquardt algorithm.
Target sequence in this assay (P51531 1378-1506 limits assumed): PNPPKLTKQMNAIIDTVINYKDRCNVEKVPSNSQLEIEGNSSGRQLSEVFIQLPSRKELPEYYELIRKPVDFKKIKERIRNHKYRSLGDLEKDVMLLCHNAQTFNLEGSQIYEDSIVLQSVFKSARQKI

Compound | Kd [µM]
Nc1nnc(-c2cccc(Cl)c2O)cc1N1CCNCC1 [I-32, 2-(6-Amino-5-(piperazin-1-yl)pyridazin-3-yl)-6-chlorophenol] | < 0.1
Nc1nnc(-c2cc(Cl)ccc2O)cc1N1CCNCC1 [I-33, 2-(6-Amino-5-piperazin-1-yl-pyridazin-3-yl)-4-chloro-phenol] | 0.1 to 0.5
O=c1c2c(O)cccc2ccn1CC1CCN(c2ccccn2)C1 (centres unmarked) [I-5, 8-hydroxy-2-((1-(pyridin-2-yl)pyrrolidin-3-yl)methyl)isoquinolin-1(2H)-one] | > 1
O=c1c2c(O)cccc2ccn1Cc1cn[nH]c1 [I-4, 2-((1H-pyrazol-4-yl)methyl)-8-hydroxyisoquinolin-1(2H)-one] | > 1
COC(=O)C1=CC(=O)N2CCCN=C2S1 [I-37] | > 1
Oc1ccccc1-c1n[nH]c2ccccc12 [I-29, 2-(1H-indazol-3-yl)phenol] | > 1
Cn1cccc(-c2cnc(N)c(-c3cn[nH]c3)c2)c1=O [I-2, 3-[6-Amino-5-(1H-pyrazol-4-yl)-3-pyridyl]-1-methyl-pyridin-2-one] | > 1
Cc1ccc(O)c(-c2cc(N3CCNCC3)c(N)nn2)c1 [I-34, 2-(6-Amino-5-piperazin-1-yl-pyridazin-3-yl)-4-methyl-phenol] | > 1
Oc1ccccc1-c1cc2cc[nH]c2nn1 [I-19, 2-(7H-Pyrrolo[2,3-c]pyridazin-3-yl)phenol] | < 0.1
Nc1nnc(-c2ccn[nH]2)cc1C1CCNCC1 [I-35, 4-(4-Piperidyl)-6-(1H-pyrazol-5-yl)pyridazin-3-amine] | > 1
Nc1ncc(-c2ncccn2)cc1N1CCNCC1 [I-14, 3-(piperazin-1-yl)-5-(pyrimidin-2-yl)pyridin-2-amine] | > 1
CC(C)(C)OC(=O)N1CCC(Cn2ccc3cccc(O)c3c2=O)C1 (centres unmarked) [I-9, Tert-butyl 3-((8-hydroxy-1-oxoisoquinolin-2(1H)-yl)methyl)pyrrolidine-1-carboxylate] | > 1
O=C(Nc1cc(C2CCNCC2)cc2[nH]ncc12)c1ccccc1O [I-22, 2-Hydroxy-N-(6-(piperidin-4-yl)-1H-indazol-4-yl)benzamide] | > 1
O=c1c2c(O)cccc2ccn1CC1CCNC1 (centres unmarked) [I-10, 8-hydroxy-2-(pyrrolidin-3-ylmethyl)isoquinolin-1(2H)-one] | > 1
c1ccc2c(c1)nnc1[nH]c(C3CCNCC3)cc12 [I-24, 2-(4-Piperidyl)-3H-pyrrolo [2,3-c]cinnoline] | 0.501 to 1
Nc1ncc(-c2cccc(Cl)c2)cc1N1CCNCC1 [I-15, 5-(3-chlorophenyl)-3-(piperazin-1-yl)pyridin-2-amine] | > 1
Nc1nnc(-c2cnccc2O)cc1N1CCNCC1 [I-17, 3-(6-Amino-5-(piperazin-1-yl)pyridazin-3-yl)pyridin-4-ol] | > 1

Compound | Kd [µM]
Nc1ncc(-c2ncccn2)cc1C1CCNCC1 [I-13] | > 1
Oc1ccccc1-c1cc(-c2ccc(CN3CCNCC3)cc2)[nH]n1 [I-28, 2-[5-[4-(piperazin-1-ylmethyl)phenyl]-1H-pyrazol-3-yl]phenol] | > 1
CC(C)(C)OC(=O)N1CCCC1Cn1ccc2cccc(O)c2c1=O (centres unmarked) [I-6, Tert-butyl-2-((8-hydroxy-1-oxoisoquinolin-2(1H)-yl)methyl)pyrrolidine-1-carboxylate] | > 1
O=c1c2c(O)cccc2ccn1Cc1cnn(Cc2ccccc2)c1 [I-3, 2-((1-benzyl-1H-pyrazol-4-yl)methyl)-8-hydroxyisoquinolin-1(2H)-one] | > 1
COc1ccc(C(NC(=O)c2cc(-c3ccccc3O)n[nH]2)C2CC2)cc1 (centres unmarked) [I-38] | > 1
O=c1c2c(O)cccc2ccn1CC1CCCN1 (centres unmarked) [I-7, 8-hydroxy-2-(pyrrolidin-2-ylmethyl)isoquinolin-1(2H)-one] | > 1
O=C(Nc1ccc2c(C3CCNCC3)n[nH]c2c1)c1ccccc1O [I-23, 2-Hydroxy-N-[3-(4-piperidyl)-1H-indazol-6-yl]benzamide] | > 1
CCCCOc1ccc(N2CCN(c3cc(-c4ccccc4O)nnc3N)CC2)cc1 [I-18, 2-(6-Amino-5-(4-(4-butoxyphenyl)piperazin-1-yl)pyridazin-3-yl)phenol] | > 1
Oc1ccccc1-c1n[nH]c2ccncc12 [I-30, 2-(1H-Pyrazolo[4,3-c]pyridin-3-yl)phenol] | > 1
O=c1ncn(-c2ccccc2)c2cccc(Cl)c12 [I-11, 5-Chloro-1-phenylquinazolin-4(1H)-one] | > 1
O=C(NCC1CCN(c2ccccn2)CC1)c1ccccc1O [I-16, 2-Hydroxy-N-((1-(pyridin-2-yl)piperidin-4-yl)methyl)benzamide] | > 1
Nc1nnc(-c2ccc(Cl)cc2O)cc1N1CCNCC1 [I-31, 2-(6-Amino-5-piperazin-1-yl-pyridazin-3-yl)-5-chloro-phenol] | > 1
CC(c1ccccc1)n1cc(-c2cc(-c3cccn(C)c3=O)cnc2N)cn1 (centres unmarked) [I-1, 6′-Amino-1-methyl-5′-(1-(1-phenylethyl)-1H-pyrazol-4-yl)-[3,3′-bipyridin]-2(1H)-one] | > 1
O=C(Nc1ccc2cn[nH]c2c1)c1ccccc1O [I-21, 2-Hydroxy-N-(1H-indazol-6-yl)benzamide] | > 1
Oc1ccccc1-c1cc2c(C3CCNCC3)c[nH]c2nn1 [I-20, 2-(5-(Piperidin-4-yl)-7H-pyrrolo[2,3-c]pyridazin-3-yl)phenol] | < 0.1
Nc1ncc2c(Cl)cccc2c1C#CC1CCNCC1 [I-27, 8-Chloro-4-(piperidin-4-ylethynyl)isoquinolin-3-amine] | > 1

What follows are compounds tested against T1, SMARCA2 (assay: SMARCA2 HTRF assay (His-tagged SMARCA2-17, anti-6His Tb cryptate)). Details: read-out: SMARCA2 binding Human HTRF: Average IC50.
Method: Sample handling: Prepared 1× Epigenetics Buffer according to manufacturer's instructions. Prepared 32 nM SMARCA2-17 (4X) with Epigenetics Buffer; Prepared 4× Tb working solution: dilute Mab Anti 6His Tb cryptate Gold in PPI-Terbium Detection buffer to 0.21 ng/l (100× dilution from stock). Prepared SMARCA2-mAb-Tb working solution by mixing equal volume of 32 nM SMARCA2 with Tb working solution. Started a half-hour timer. In a 96-well plate, prepared serial dilution of compound DMSO solutions. Placed 24 μl/well of Epigenetics Buffer to a second 96-well plate. Transferred 1 μl of the 100× compound DMSO solution to the second 96-well plate to make 4× compound working solution. Prepared 80 nM SMA-611-001H/SMA-788-001H (4×) with Epigenetics Buffer. Added 5 μl/well of SMA-611-001H into the 384-well plate. Added 5 μl/well of SMA-788-001H into the 384-well plate. Added 5 μl/well of 4× compound working solution into the 384-well plate, mix well. Added 10 µl/well of SMARCA2-mAb-Tb working solution into 384-well plate. Incubated the above mixtures at room temperature for 30 min. Data collected, processed and on EnVision. Calculated 520 nm/495 nm readouts ratio from raw data.
Target sequence in this assay (P51531 whole entry): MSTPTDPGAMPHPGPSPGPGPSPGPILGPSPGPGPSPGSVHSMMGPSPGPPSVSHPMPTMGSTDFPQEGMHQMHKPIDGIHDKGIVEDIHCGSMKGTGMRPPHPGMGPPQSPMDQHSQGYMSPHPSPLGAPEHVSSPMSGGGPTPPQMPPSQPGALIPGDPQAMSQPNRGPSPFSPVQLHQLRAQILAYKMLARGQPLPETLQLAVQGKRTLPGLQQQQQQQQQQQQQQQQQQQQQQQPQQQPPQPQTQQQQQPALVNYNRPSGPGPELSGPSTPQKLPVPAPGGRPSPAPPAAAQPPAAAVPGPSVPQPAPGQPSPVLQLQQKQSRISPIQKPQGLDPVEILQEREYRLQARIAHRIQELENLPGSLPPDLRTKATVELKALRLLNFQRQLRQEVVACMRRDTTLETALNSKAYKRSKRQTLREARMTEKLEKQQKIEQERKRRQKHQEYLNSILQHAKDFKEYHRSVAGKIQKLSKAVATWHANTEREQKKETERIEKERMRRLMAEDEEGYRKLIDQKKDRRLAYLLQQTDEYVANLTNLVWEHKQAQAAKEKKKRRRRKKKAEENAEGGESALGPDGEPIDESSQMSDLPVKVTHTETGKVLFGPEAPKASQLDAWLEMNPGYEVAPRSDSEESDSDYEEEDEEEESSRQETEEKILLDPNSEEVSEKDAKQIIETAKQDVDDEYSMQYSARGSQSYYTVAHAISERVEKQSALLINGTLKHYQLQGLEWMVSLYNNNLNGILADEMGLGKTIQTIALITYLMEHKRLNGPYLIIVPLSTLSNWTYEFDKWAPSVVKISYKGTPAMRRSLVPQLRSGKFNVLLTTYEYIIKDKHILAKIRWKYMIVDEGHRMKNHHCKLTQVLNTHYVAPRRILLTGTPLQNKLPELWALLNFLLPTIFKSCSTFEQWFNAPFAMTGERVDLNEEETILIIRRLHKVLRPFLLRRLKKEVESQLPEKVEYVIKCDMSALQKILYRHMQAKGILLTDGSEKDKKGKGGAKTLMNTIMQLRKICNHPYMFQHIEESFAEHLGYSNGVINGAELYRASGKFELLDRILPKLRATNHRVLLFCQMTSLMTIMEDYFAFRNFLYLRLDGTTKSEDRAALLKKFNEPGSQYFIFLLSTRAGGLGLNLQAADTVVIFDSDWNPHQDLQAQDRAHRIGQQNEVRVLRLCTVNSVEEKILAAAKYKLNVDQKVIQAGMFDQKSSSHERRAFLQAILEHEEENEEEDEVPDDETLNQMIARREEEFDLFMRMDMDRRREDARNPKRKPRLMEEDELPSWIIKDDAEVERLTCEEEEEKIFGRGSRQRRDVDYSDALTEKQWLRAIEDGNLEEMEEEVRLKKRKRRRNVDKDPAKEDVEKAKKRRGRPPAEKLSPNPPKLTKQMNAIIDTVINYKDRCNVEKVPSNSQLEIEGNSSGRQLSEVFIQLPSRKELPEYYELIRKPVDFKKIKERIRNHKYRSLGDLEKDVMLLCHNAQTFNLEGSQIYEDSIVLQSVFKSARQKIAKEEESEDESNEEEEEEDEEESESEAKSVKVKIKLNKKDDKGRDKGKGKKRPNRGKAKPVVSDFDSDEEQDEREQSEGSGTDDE

Compound | IC50 [µM]
Oc1ccccc1-c1cc2cc[nH]c2nn1 [I-19, 2-(7H-Pyrrolo[2,3-c]pyridazin-3-yl)phenol] | 1 to 100
Nc1ncc2ccccc2c1C#CC1CCNCC1 [I-25, 4-(Piperidin-4-ylethynyl)isoquinolin-3-amine] | 101 to 500
